# Assay results taken from US20150344457A1, “METHODS OF INHIBITING PRMT5” (EPIZYME, INC., priority 2012, published 2015).
# pEC50, pIC50: −log10 of the molar value. Where two headings read alike, the source gives them in different places.
# Columns and labels:
# [1] = biological target: T1, PRMT5/MEP50 (Homo sapiens, UniProt O14744); test: PRMT5 Biochemical Assay (PRMT5/MEP50 enzyme assay on peptide substrate, 3H-SAM Flashplate); settings: read-out: Biochemical IC50
# T1 construct: Expressed full-length human Flag-PRMT5/6His-MeP50 protein complex was purified; made in house; host or cells: Spodoptera frugiperda (SF9) insect cells, baculovirus (pDEST8)
# T1 sequence (O14744 with tags, fused parts or gaps): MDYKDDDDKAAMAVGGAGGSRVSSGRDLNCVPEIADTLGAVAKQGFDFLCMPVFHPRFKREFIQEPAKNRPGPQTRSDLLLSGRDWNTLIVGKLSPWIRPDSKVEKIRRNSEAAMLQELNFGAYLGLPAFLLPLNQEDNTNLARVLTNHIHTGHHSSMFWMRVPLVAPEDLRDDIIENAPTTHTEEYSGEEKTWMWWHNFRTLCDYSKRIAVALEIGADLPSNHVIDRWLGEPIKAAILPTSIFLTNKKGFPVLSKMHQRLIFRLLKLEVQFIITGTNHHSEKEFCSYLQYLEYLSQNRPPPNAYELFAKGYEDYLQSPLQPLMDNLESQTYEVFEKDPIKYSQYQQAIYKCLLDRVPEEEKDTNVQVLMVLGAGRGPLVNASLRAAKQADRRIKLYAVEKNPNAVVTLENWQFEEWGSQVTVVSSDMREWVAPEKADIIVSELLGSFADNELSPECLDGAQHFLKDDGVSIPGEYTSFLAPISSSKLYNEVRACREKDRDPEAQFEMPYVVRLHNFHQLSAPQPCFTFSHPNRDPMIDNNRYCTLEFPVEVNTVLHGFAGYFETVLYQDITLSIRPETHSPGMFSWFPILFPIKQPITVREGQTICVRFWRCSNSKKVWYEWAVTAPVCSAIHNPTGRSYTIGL
# T1 sequence (Q9BQA1 with tags, fused parts or gaps partner limits assumed): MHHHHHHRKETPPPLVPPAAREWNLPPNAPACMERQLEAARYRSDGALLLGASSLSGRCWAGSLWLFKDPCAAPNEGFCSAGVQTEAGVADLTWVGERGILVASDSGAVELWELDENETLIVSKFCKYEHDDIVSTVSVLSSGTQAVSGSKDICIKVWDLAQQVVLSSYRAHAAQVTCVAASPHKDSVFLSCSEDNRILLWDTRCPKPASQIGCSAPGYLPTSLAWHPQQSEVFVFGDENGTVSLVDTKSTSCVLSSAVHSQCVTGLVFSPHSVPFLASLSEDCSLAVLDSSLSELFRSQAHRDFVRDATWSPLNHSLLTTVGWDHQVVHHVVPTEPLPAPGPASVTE
# [2] = test system: Z-138 cells; test: Z-138 Methylation Assay (In Cell Western for symmetric di-methyl arginine and DNA content); assay type: cell-based; settings: Homo sapiens
# Text: Z-138 suspension cells were purchased from ATCC (American Type Culture Collection, Manassas, Va.). RPMI/Glutamax medium, penicillin-streptomycin, heat inactivated fetal bovine serum, and D-PBS were purchased from Life Technologies, Grand Island, N.Y., USA. Odyssey blocking buffer, 800CW goat anti-rabbit IgG (H+L) antibody, and Licor Odyssey infrared scanner were purchased from Licor Biosciences, Lincoln, Nebr., USA. Symmetric di-methyl arginine antibody was purchased from EMD Millipore, Billerica, Mass., USA. 16% Paraformaldehyde was purchased from Electron Microscopy Sciences, Hatfield, Pa., USA.
# Z-138 suspension cells were maintained in growth medium (RPMI 1640 supplemented with 10% v/v heat inactivated fetal bovine serum and 100 units/mL penicillin-streptomycin) and cultured at 37° C. under 5% CO2.
# Cell Treatment, in Cell Western (ICW) for Detection of Symmetric Di-Methyl Arginine and DNA Content.
# Z-138 cells were seeded in assay medium at a concentration of 50,000 cells per mL to a 384-well cell culture plate with 50 μL per well. Compound (100 nL) from 384 well source plates was added directly to 384 well cell plate. Plates were incubated at 37° C., 5% CO2 for 96 hours. After four days of incubation, 40 μL of cells from incubated plates were added to poly-D-lysine coated 384 well culture plates (BD Biosciences 356697). Plates were incubated at room temperature for 30 minutes then incubated at 37° C., 5% CO2 for 5 hours. After the incubation, 40 μL per well of 8% paraformaldehyde in PBS (16% paraformaldahyde was diluted to 8% in PBS) was added to each plate and incubated for 30 minutes. Plates were transferred to a Biotek 405 plate washer and washed 5 times with 100 μL per well of wash buffer (1×PBS with 0.1% Triton X-100 (v/v)). Next 30 μL per well of Odyssey blocking buffer were added to each plate and incubated 1 hour at room temperature. Blocking buffer was removed and 20 μL per well of primary antibody was added (symmetric di-methyl arginine diluted 1:100 in Odyssey buffer with 0.1% Tween 20 (v/v)) and plates were incubated overnight (16 hours) at 4° C. Plates were washed 5 times with 100 μL per well of wash buffer. Next 20 μL per well of secondary antibody was added (1:200 800CW goat anti-rabbit IgG (H+L) antibody, 1:1000 DRAQS (Biostatus limited) in Odyssey buffer with 0.1% Tween 20 (v/v)) and incubated for 1 hour at room temperature. The plates were washed 5 times with 100 μL per well wash buffer then 1 time with 100 μL per well of water. Plates were allowed to dry at room temperature then imaged on the Licor Odyssey machine which measures integrated intensity at 700 nm and 800 nm wavelengths. Both 700 and 800 channels were scanned.
# First, the ratio for each well was determined by:
# Each plate included fourteen control wells of DMSO only treatment (minimum inhibition) as well as fourteen control wells for maximum inhibition treated with 3 μM of a reference compound (Background wells). The average of the ratio values for each control type was calculated and used to determine the percent inhibition for each test well in the plate. Reference compound was serially diluted three-fold in DMSO for a total of nine test concentrations, beginning at 3 μM. Percent inhibition was determined and IC50 curves were generated using triplicate wells per concentration of compound.
# [3] = test system: Z-138 cells; test: Z-138 Proliferation Assay (Cell Titer Glo, 5 days); assay type: cell-based; settings: Homo sapiens
# Text: Z-138 Proliferation Assay
# Z-138 suspension cells were purchased from ATCC (American Type Culture Collection, Manassas, Va.). RPMI/Glutamax medium, penicillin-streptomycin, heat inactivated fetal bovine serum were purchased from Life Technologies, Grand Island, N.Y., USA. V-bottom polypropylene 384-well plates were purchased from Greiner Bio-One, Monroe, N.C., USA. Cell culture 384-well white opaque plates were purchased from Perkin Elmer, Waltham, Mass., USA. Cell-Titer Gb® was purchased from Promega Corporation, Madison, Wis., USA. SpectraMax M5 plate reader was purchased from Molecular Devices LLC, Sunnyvale, Calif., USA.
# Z-138 suspension cells were maintained in growth medium (RPMI 1640 supplemented with 10% v/v heat inactivated fetal bovine serum and cultured at 37° C. under 5% CO2. Under assay conditions, cells were incubated in assay medium (RPMI 1640 supplemented with 10% v/v heat inactivated fetal bovine serum and 100 units/mL penicillin-streptomycin) at 37° C. under 5% CO2.
# For the assessment of the effect of compounds on the proliferation of the Z-138 cell line, exponentially growing cells were plated in 384-well white opaque plates at a density of 10,000 cells/ml in a final volume of 50 μl of assay medium. A compound source plate was prepared by performing triplicate nine-point 3-fold serial dilutions in DMSO, beginning at 10 mM (final top concentration of compound in the assay was 20 μM and the DMSO was 0.2%). A 100 nL aliquot from the compound stock plate was added to its respective well in the cell plate. […] After addition of compounds, assay plates were incubated for 5 days at 37° C., 5% CO2, relative humidity >90%.
# Cell viability was measured by quantitation of ATP present in the cell cultures, adding 35 μl of Cell Titer Glo® reagent to the cell plates. Luminescence was read in the SpectraMax M5 microplate reader. The concentration of compound inhibiting cell viability by 50% was determined using a 4-parametric fit of the normalized dose response curves.
# [4] = Table A-2, PRMT5/MEP50 4 nM, 3H-SAM 75 nM, peptide 40 nM
# [5] = Table A-2, 96 hours, symmetric di-methyl arginine, read-out: ICW EC50
pIC50 ([1]; Table D-2),Compound,pEC50 ([3]; Table D-2),further results
,O=C(COc1ccccc1)NCC(O)CN1CCc2ccccc2C1 (stereo not shown) [Compound A1],,"pIC50 [1, 4]: 6.00 to 7.00; pEC50 [2, 5]: 6.00 to 7.00"
,Cn1cnc2ccc(OCC(=O)NCC(O)CN3CCc4ccccc4C3)cc21 (stereo not shown) [Compound A30],,"pEC50 [2, 5]: 6.00 to 7.00; pEC50 ([3]; 120 h, Table A-2, 5 days, top concentration 20 μM): 4.30 to 5.00"
,Cn1nccc1-c1cccc(CC(=O)NCC(O)CN2CCc3ccccc3C2)c1 (stereo not shown) [Compound A54],,"pIC50 [1, 4]: 6.00 to 7.00; pEC50 [2, 5]: 6.00 to 7.00"
,O=C(Cc1cccc2cccnc12)NCC(O)CN1CCc2ccccc2C1 (stereo not shown) [Compound A60],,"pIC50 [1, 4]: 6.00 to 7.00; pEC50 [2, 5]: 5.00 to 6.00"
,Cn1cnc2ccc(NCC(=O)NCC(O)CN3CCc4ccccc4C3)cc21 (stereo not shown) [Compound A69],,"pIC50 [1, 4]: 6.00 to 7.00; pEC50 [2, 5]: 5.00 to 6.00"
,O=C(COc1ccccc1N1CCOCC1)NC[C@@H](O)CN1CCc2ccccc2C1 [Compound A78],,"pIC50 [1, 4]: 6.00 to 7.00; pEC50 [2, 5]: 6.00 to 7.00"
,CN1CCN(c2ccccc2OCC(=O)NC[C@@H](O)CN2CCc3ccccc3C2)CC1 [Compound A85],,"pIC50 [1, 4]: 5.00 to 6.00; pEC50 [2, 5]: 5.00 to 6.00"
,CN(C)CCOc1ccccc1OCC(=O)NC[C@@H](O)CN1CCc2ccccc2C1 [Compound A89],,"pIC50 [1, 4]: 6.00 to 7.00; pEC50 [2, 5]: 5.00 to 6.00"
,Cn1ccnc1-c1ccccc1OCC(=O)NCC(O)CN1CCc2ccccc2C1 (stereo not shown) [Compound A138],,"pIC50 [1, 4]: 6.00 to 7.00; pEC50 [2, 5]: 5.00 to 6.00"
,Cc1cn(C)c2cccc(OCC(=O)NCC(O)CN3CCc4ccccc4C3)c12 (stereo not shown) [Compound A146],,"pIC50 [1, 4]: > 7.00; pEC50 [2, 5]: 6.00 to 7.00"
,O=C(COc1ccccc1S(=O)(=O)N1CCOCC1)NCC(O)CN1CCc2ccccc2C1 (stereo not shown) [Compound A149],,"pIC50 [1, 4]: > 7.00; pEC50 [2, 5]: 6.00 to 7.00"
5.00 to 6.00,Cc1nn(-c2ccccc2)c(C)c1COCC(O)CN1CCc2ccccc2C1 (stereo not shown) [Compound D28],< 4.40,
4.40 to 5.00,COc1cccc2c1CN(CC(O)COc1cccc(CNC3CCCC3)c1)CC2 (stereo not shown) [Compound D29],4.40 to 5.00,
< 4.40,COc1cc2c(cc1OC)CN(CC(O)COc1cccc(CNC3CCCC3)c1)CC2 (stereo not shown) [Compound D30],4.40 to 5.00,
5.00 to 6.00,CC(C(O)COc1cccc(CNC2CCCC2)c1)N1CCc2ccccc2C1 (stereo not shown) [Compound D33],< 4.40,
5.00 to 6.00,O=C(c1ccc(Cn2ccc(-c3ccc(OCC(O)CN4CCc5ccccc5C4)cc3)n2)cc1)N1CCCC1 (stereo not shown) [Compound D34],4.40 to 5.00,
6.00 to 7.00,COc1cc(Cl)cc(-c2cccc(OCC(O)CN3CCc4ccccc4C3)c2)c1 (stereo not shown) [Compound D110],,"pEC50 ([2]; Table D-2, read-out: ICW EC50): < 4.70"
6.00 to 7.00,N#CCc1cccc(-c2cccc(OCC(O)CN3CCc4ccccc4C3)c2)c1 (stereo not shown) [Compound D111],,"pEC50 ([2]; Table D-2, read-out: ICW EC50): 5.00 to 6.00"
6.00 to 7.00,Cn1cc2ccc(-c3cccc(OCC(O)CN4CCc5ccccc5C4)c3)cc2n1 (stereo not shown) [Compound D114],,"pEC50 ([2]; Table D-2, read-out: ICW EC50): < 4.70"
6.00 to 7.00,OC(COc1cccc(-c2ccccc2F)c1)CN1CCc2ccccc2C1 (stereo not shown) [Compound D154],,"pEC50 ([2]; Table D-2, read-out: ICW EC50): 5.00 to 6.00"
5.00 to 6.00,O=C(Nc1cccc(OCC(O)CN2CCc3ccccc3C2)c1)c1cccnn1 (stereo not shown) [Compound D164],,"pEC50 ([2]; Table D-2, read-out: ICW EC50): 5.00 to 6.00"
6.00 to 7.00,CCC1c2ccccc2CCN1CC(O)COc1cccc(-c2ccc3ncn(C)c3c2)c1 (stereo not shown) [Compound D179],< 4.70,
5.00 to 6.00,OC(COCc1c(Cl)cccc1Cl)CN1CCc2ccccc2C1 (stereo not shown) [Compound D280],4.40 to 5.00,
5.00 to 6.00,OC(COc1ccc2c(c1)OCO2)CN1CCc2ccccc2C1 (stereo not shown) [Compound D285],< 4.70,

pIC50 ([1]; Table D-2),Compound,pEC50 ([3]; Table D-2),further results
6.00 to 7.00,CCCCNCc1cccc(COCC(O)CN2CCc3ccccc3C2)c1 (stereo not shown) [Compound D286],< 4.70,
5.00 to 6.00,COc1cccc(COCC(O)CN2CCc3ccccc3C2)c1 (stereo not shown) [Compound D288],< 4.40,
< 4.40,CN1CCCCC1COCC(O)CN1CCc2ccccc2C1 (stereo not shown) [Compound D289],< 4.40,
5.00 to 6.00,CC(C)(C)OC(=O)N1CC(OCC(O)CN2CCc3ccccc3C2)C1 (stereo not shown) [Compound D290],< 4.40,
5.00 to 6.00,CC(C)(C)OC(=O)N1CCCC(OCC(O)CN2CCc3ccccc3C2)C1 (stereo not shown) [Compound D291],< 4.40,
5.00 to 6.00,CC(C)(C)OC(=O)N1CCC(OCC(O)CN2CCc3ccccc3C2)CC1 (stereo not shown) [Compound D292],< 4.40,
< 4.40,CN1CCC(OCC(O)CN2CCc3ccccc3C2)CC1 (stereo not shown) [Compound D293],< 4.40,
5.00 to 6.00,OC(COCC1CCCCC1)CN1CCc2ccccc2C1 (stereo not shown) [Compound D294],< 4.40,
< 4.40,CCn1ccnc1COCC(O)CN1CCc2ccccc2C1 (stereo not shown) [Compound D295],< 4.40,
< 4.40,OC(COC1CCCNC1)CN1CCc2ccccc2C1 (stereo not shown) [Compound D297],< 4.40,
< 4.40,OC(COC1CCNCC1)CN1CCc2ccccc2C1 (stereo not shown) [Compound D298],< 4.40,
4.40 to 5.00,CC(OCC(O)CN1CCc2ccccc2C1)c1cccnc1 (stereo not shown) [Compound D299],< 4.40,
6.00 to 7.00,OC(COCC1COc2ccccc2O1)CN1CCc2ccccc2C1 (stereo not shown) [Compound D300],< 4.40,
5.00 to 6.00,OC(COC1Cc2ccccc2C1)CN1CCc2ccccc2C1 (stereo not shown) [Compound D301],< 4.40,
5.00 to 6.00,OC(COCC1CC1)CN1CCc2ccccc2C1 (stereo not shown) [Compound D303],< 4.40,
< 4.40,OC(COCC1CCCCO1)CN1CCc2ccccc2C1 (stereo not shown) [Compound D304],< 4.40,
4.40 to 5.00,OC(COCC1CCCO1)CN1CCc2ccccc2C1 (stereo not shown) [Compound D305],< 4.40,
< 4.40,OC(COC1CCNC1)CN1CCc2ccccc2C1 (stereo not shown) [Compound D306],< 4.40,
< 4.40,CN1CCC(OCC(O)CN2CCc3ccccc3C2)C1 (stereo not shown) [Compound D307],< 4.40,
4.40 to 5.00,OC(COCc1ccccc1)CN1CCc2ccccc2C1 (stereo not shown) [Compound D308],< 4.40,
5.00 to 6.00,OC(COC1CCCCCC1)CN1CCc2ccccc2C1 (stereo not shown) [Compound D309],< 4.40,
4.40 to 5.00,OC(COC1CCOCC1)CN1CCc2ccccc2C1 (stereo not shown) [Compound D310],< 4.40,
,O=C(NCC(O)CN1Cc2ccccc2C1)c1cccc(NC2CCOCC2)c1 (stereo not shown) [Compound E8.],,"pIC50 ([1]; Table E-2): 6.00 to 7.00; pEC50 ([2]; Table E-2, read-out: ICW EC50): 6.00 to 7.00"
